Here are results for 64 compounds from PubChem BioAssay AID624375 (Broad Institute, 2012).

Inconclusive results are not listed. Activity calls are given as the source filed them.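 Rule for the calls: active = fitted curve reaches -35% activity change at a concentration under twice the top valid dose, in every replicate test; inconclusive = replicate tests disagree on the call; inactive = the rest, including activity in the opposite direction.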

The subject of one assay is EBV-transformed LCL viability, CellTiter-Glo ATP luminescence, 48 h. The assay can be described thus: EBV-transformed lymphoblastoid cell viability decrease, dose response, EBV LMP1 NF-kB inhibitor project, CellTiter-Glo, dry powder, replicate tests (AID 624375).
Settings: not given
For orientation: ATP-based viability assays read luminescence as a measure of living cells.
Turning to `O=C1/C(=C/c2ccncc2)SC(=S)N1Cc1ccccc1`, the AC35 is 38.5 µM.
On the same count and under the same terms, to `CCN1CCN(C(c2cccnc2)c2cc(Cl)c3cccnc3c2O)CC1` (centres undefined) belongs 26.5 µM; to `CC(=O)Nc1nc(C)c(-c2csc(Nc3ccc(O)cc3)n2)s1`, 22.8 µM; to `C=C1C[C@]23C[C@@]1(O)CC[C@@H]2c1cccc(C)c1[C@@H]3C(=O)O`, 9.19 µM.
Regarding `C/C(=N\NC(=S)Nc1ccccc1)c1ccccn1`, the AC35 is less than 0.08 µM.
On the same count and under the same terms, for `Cc1ccc(NC(=O)C2CCN(S(=O)(=O)c3ccc4c(c3)NC(=O)C(C)S4)CC2)cc1Cl` (centres undefined) the value was 45.7 µM; for `C/C(=N\NC(=S)N1CCN(c2ccccn2)CC1)c1ccccn1`, less than 0.08 µM.
Still for that read-out and setting: for `Cc1c(NC(=O)c2cccc(NC(=O)COc3ccccc3C#N)c2)c(=O)n(-c2ccccc2)n1C` the value was 45.6 µM; for `C/C(=N\NC(=S)Nc1cccc(C)c1)c1ccccn1`, less than 0.08 µM.
The same measure, in the same setting: for `CCC(Sc1nnc2c3ccccc3n(Cc3ccc(Br)cc3)c2n1)C(=O)NCCCN1CCOCC1` (centres undefined) the value was 8.58 µM; for `C/C(=N\NC(=S)N1CCCCC1)c1cccc(C)n1`, less than 0.08 µM.
In the case of `C[C@@H]1CCCCO[C@H](CN(C)C(=O)NC2CCCCC2)[C@H](C)CN([C@@H](C)CO)C(=O)c2cc(NC(=O)C3CCCCC3)ccc2O1`, the AC35 was 22.1 µM.
With `C/C(=N\NC(=S)N1CC2CCC(CC2)C1)c1cccc(C)n1`, the AC35 was 0.409 µM.
The same measure, in the same setting: for `C[C@H](CO)N1C[C@H](C)[C@H](CN(C)C(=O)Nc2ccc(C(F)(F)F)cc2)OCCCC[C@H](C)Oc2ccc(NC(=O)Nc3ccc(F)cc3)cc2C1=O` the value was 21.5 µM.
For the compound `CC(C)=CCN(C(=O)C#Cc1ccccc1)[C@H](CO)c1ccccc1`, the AC35 is 8.22 µM.
Regarding `Cc1ccnc(NC(=O)c2ccc(C(=O)c3ccccc3)cc2)c1`, the AC35 is 24.1 µM.
In the case of `Fc1ccc2c(c1)c1nnc(SCCN3CCOCC3)nc1n2Cc1ccccc1`, the AC35 was 4.38 µM.
Same read-out and setting: for `C/C(=N\NC(=S)N1CCCCC1)c1ccccn1` the value was less than 0.08 µM.
Still for that read-out and setting: to `C[C@@H]1CN([C@@H](C)CO)C(=O)c2cc(NC(=O)Nc3ccc(C(F)(F)F)cc3)ccc2O[C@@H](C)CCCCO[C@H]1CN(C)Cc1ccc(C(F)(F)F)cc1` belongs 30.8 µM; to `CSC(=S)N/N=C(\C)c1cccc(C)n1`, 0.687 µM; to `C/C(=N\NC(=S)N1CCCC1)c1ccccn1`, less than 0.08 µM.
On the same count and under the same terms, to `S=C(NCc1ccccn1)N/N=C/c1ccccn1` belongs less than 0.08 µM; to `COc1ccc2[nH]c(C(=O)N/N=C/c3ccc(O)cc3O)cc2c1`, 26.7 µM; to `C[C@H](CO)N1C[C@H](C)[C@@H](CN(C)CC2CC2)OCCCC[C@H](C)Oc2ccc(NC(=O)Nc3cccc4ccccc34)cc2C1=O`, 43 µM.
As to `O=C(CSc1nnc2c3ccccc3n(Cc3ccccc3)c2n1)NCc1ccco1`, the AC35 is 44.1 µM.
Same read-out and setting: to `S=C(N/N=C(\c1ccccc1)c1ccccn1)N(Cc1ccccn1)Cc1ccccn1` belongs 0.135 µM.
The same measure, in the same setting: to `C[C@H](CO)N1C[C@H](C)[C@@H](CN(C)Cc2ccc(-c3ccccc3)cc2)Oc2ccc(NC(=O)Nc3cccc4ccccc34)cc2CC1=O` belongs 28.8 µM; to `O=c1[nH]c(=O)n([C@H]2C[C@H](O)[C@@H](CO)O2)cc1C(F)(F)F`, 10.1 µM; to `C[C@H]1CCCCO[C@@H](CN(C)CC2CCCCC2)[C@@H](C)CN([C@@H](C)CO)C(=O)c2cc(NC(=O)C3CCCCC3)ccc2O1`, 18.1 µM.
On the same count and under the same terms, to `C/C(=N\NC(=S)N1CCN(C2CCCCCC2)CC1)c1ccccn1` belongs less than 0.08 µM; to `C/C(=N\NC(=S)N1CCCCCC1)c1ccccn1`, less than 0.08 µM; to `C[C@@H]1CN([C@@H](C)CO)C(=O)c2cc(NC(=O)Nc3ccc4c(c3)OCO4)ccc2O[C@H]1CN(C)CC1CCCCC1`, 89.9 µM.
Take `C/C(=N\NC(=S)N1CC2CCC(CC2)C1)c1ccccn1`: the AC35 is less than 0.08 µM.
Regarding `C[C@@H]1CN([C@@H](C)CO)C(=O)c2cccc(NC(=O)Nc3cccc4ccccc34)c2O[C@H]1CN(C)C(=O)Nc1ccc(C(F)(F)F)cc1`, the AC35 was 29.8 µM.
Same read-out and setting: to `Nc1ccn([C@@H]2O[C@H](CO)[C@@H](O)C2O)c(=O)n1` (some centres undefined) belongs 26.1 µM.
The same measure, in the same setting: for `C/C(=N\NC(=S)N1CC2CCC(CC2)C1)c1cnccn1` the value was less than 0.08 µM; for `COc1ccc(NC(=O)c2ccc(OC(C)C(=O)O)cc2)cc1Cl` (centres undefined), 34.1 µM.
Turning to `CSc1nc(-c2ccc(C)cc2)nc(C(Cl)Cl)n1`, the AC35 is 21.7 µM.
Turning to `C[C@@H]1CN([C@@H](C)CO)C(=O)c2cc(NC(=O)Nc3ccc(C(F)(F)F)cc3)ccc2O[C@@H](C)CCCCO[C@@H]1CN(C)CC1CCCCC1`, the AC35 was 45.7 µM.
On the same count and under the same terms, for `COCCCNC(=O)C(C)Sc1nnc2c3cc(C)ccc3n(Cc3ccccc3F)c2n1` (centres undefined) the value was 25 µM; for `C/C(=N\NC(=S)N1CC2CCC(CC2)C1)c1ccncn1`, less than 0.08 µM; for `C/C(=N\NC(=S)Nc1cccc(Cl)c1)c1ccccn1`, less than 0.08 µM.
The same measure, in the same setting: to `C/C(=N\NC(=S)N1CCC1)c1ccccn1` belongs less than 0.08 µM; to `CC12CCC3C(CC=C4CC(O)CCC43CO)C1CCC2OC(=O)c1ccccc1` (centres undefined), 45.6 µM; to `C/C(=N\NC(=S)Nc1ccccc1Cl)c1ccccn1`, less than 0.08 µM.
`COc1ccccc1NC(=S)N/N=C(\C)c1ccccn1`: the AC35 is less than 0.08 µM.
Still for that read-out and setting: for `C/C(=N\NC(=S)Nc1ccc(C)cc1)c1ccccn1` the value was less than 0.08 µM.

System in the next assay: not listed separately
Described as above. Conditions: EBV-transformed LCL viability, CellTiter-Glo ATP luminescence, 48 h; at 10 µM (top of the series).
In the case of `C/C=C/C/C=C/CCC(=O)[C@H]1O[C@H]1C(N)=O`, the activity change, negative = inhibition was -4.56% (inactive).

The same assay, now with this note: EBV-transformed LCL viability, CellTiter-Glo ATP luminescence, 48 h; at 12 µM (top of the series).
As for `C=C1C[C@]23C[C@@]1(O)CC[C@H]2[C@@]12C=C[C@H](O)[C@@](C)(C(=O)O1)[C@H]2[C@@H]3C(=O)O`, the activity change, negative = inhibition was 5.8% (inactive).

The same assay, now with this note: EBV-transformed LCL viability, CellTiter-Glo ATP luminescence, 48 h; at 19.5 µM (top of the series).
As for `CCc1ccc(/C=C/C(=O)C2C(=O)c3ccccc3C2=O)cc1`, the activity change, negative = inhibition is 10.9% (inactive).
The same measure, in the same setting: to `CCc1sc(C(=O)Nc2ncccc2O)cc1C` belongs -13.2% (inactive).
Still for that read-out and setting: to `C[C@@H]1CCCCO[C@H](CN(C)C(=O)c2ccccc2)[C@H](C)CN([C@@H](C)CO)C(=O)c2cc(NC(=O)Nc3ccc(F)cc3)ccc2O1` belongs 2.16% (inactive).
`C[C@@H]1CCCCO[C@@H](CN(C)Cc2ccccc2)[C@H](C)CN([C@H](C)CO)C(=O)c2cc(NC(=O)Nc3ccc4c(c3)OCO4)ccc2O1`: the activity change, negative = inhibition is 1.71% (inactive).
`CCCSc1nnc2c3ccccc3n(Cc3ccccc3)c2n1`: the activity change, negative = inhibition is -1.02% (inactive).
On the same count and under the same terms, to `C=CCN1Cc2ccccc2[C@@H]2OC(c3ccc(OCCCO)cc3)=N[C@]2(CCC(=O)OC(C)(C)C)C1=O` belongs 1.04% (inactive).
Same read-out and setting: to `c1ccc(-c2cn3c4c(sc3n2)CCCC4)cc1` belongs 6.87% (inactive); to `CCn1c2ccccc2c2cc(/C=N/n3cnnc3)ccc21`, -4.23% (inactive).
The same measure, in the same setting: to `CC1=C(C(=O)OCc2ccc3c(c2)OCO3)C(c2ccc(F)cc2)NC(=O)N1` (centres undefined) belongs -2.46% (inactive).
Regarding `C[C@@H]1CCCCO[C@H](CN(C)S(=O)(=O)c2ccccc2)[C@@H](C)CN([C@@H](C)CO)C(=O)c2cc(N(C)C)ccc2O1`, the activity change, negative = inhibition is -2.16% (inactive).
Same read-out and setting: to `COc1cccc(/C=N/Nc2ncnc3c2ncn3Cc2ccccc2)c1O` belongs -7.51% (inactive); to `COc1ccc(-c2cc3nc4n(c(=O)c3s2)CCC4)cc1`, -3.35% (inactive); to `COc1ccc(-c2csc3ncnc(NCCN4CCOCC4)c23)cc1`, -6.51% (inactive).
As to `O=C(CCc1ccccc1)NC(c1cccs1)c1cc(Cl)c2cccnc2c1O` (centres undefined), the activity change, negative = inhibition was 4.93% (inactive).
The same measure, in the same setting: for `CCc1ccc(/C=C2\SC(=S)N(CCCC(=O)Nc3ccccn3)C2=O)cc1` the value was 3.41% (inactive).
